Test results: patent US20150218563A1, “COMPOSITIONS AND METHODS FOR MODULATION OF RORGAMMAT FUNCTIONS” (priority 2004, published 2015)

System: mRORγt
Assay: shRNA inhibition of mRORγt expression in AKR1 cells, monitored by Western blot
Type: cell-based, mouse
Settings: AKR1 cells infected with retrovirus encoding the shRNA vs empty retroviral vector, HMG-1 loading control
Description: FIG. 42. Delivery of siRNA Hairpins by a Retroviral vector. […] After the AKR1 cells were infected with these vectors, mRORγt expression was monitored by Western blot. HMG-1 was used as an internal loading control. […] The effect lasted for at least two to three weeks, as shown in the lower panel.
Two shRNA molecules were generated using the DNA sequence of SEQ ID NO: 3 (mouse RORγt). In particular, the nucleotides from position 358-378 of SEQ ID NO: 3 and from position 1269-1289 of SEQ ID NO: 3 (mouse RORγt) were used to generate shRNA molecules. These sequences are as follows:
When tested for the ability to inhibit expression of RORγt, as well as expression of a target molecule for RORgt, significant inhibition of expression was observed. (See FIGS. 42 and 43).

Sequence | inhibition of RORγt expression
GGAACTGGCTTTCCATCATCA (expressed or natural sequence) [SEQ ID NO: 10] | shown to inhibit the expression of RORγt
GGAGCAGACACACTTACATAC (chemistry not given here) [SEQ ID NO: 9] | shown to inhibit the expression of RORγt
